Measurements reported in patent publication US20230242585A1, “IMMUNOMODULATORS” (Bristol-Myers Squibb Company, priority 2020, published 2023).
Starred links: 1 amine or outer side, 2 acyl side, 3 side chain; linkers in the order of their positions; H or OH if unused. Positions of bridges follow the written chain, without caps; N, C: chain ends. Non-standard residues stand in square brackets, D forms with d. Residues, ends and D or L forms follow the SMILES beside them. X48 = O=C([C@H](CCNCc1ccccc1O[C@@H]1O[C@H](CO)[C@@H](O)[C@H](O)[C@H]1O)N[*:1])[*:2]; X47 = O=C([C@H](CNCc1ccccc1O[C@@H]1O[C@H](CO)[C@@H](O)[C@H](O)[C@H]1O)N[*:1])[*:2]; X46 = CCn1c2ccccc2c2cc(CNCC[C@H](N[*:1])C(=O)[*:2])ccc21; Trp(1-CH2COOH) = N[C@@H](Cc1cn(CC(=O)O)c2ccccc12)C(=O)O; X45 = CCn1c2ccccc2c2cc(CNC[C@H](N[*:1])C(=O)[*:2])ccc21; X65 = O=C([C@H](CCNCc1ccccc1-c1ccc(Cl)cc1)N[*:1])[*:2]; X57 = COc1cc2cccc(OC)c2cc1CNCC[C@H](N[*:1])C(=O)[*:2]; X64 = O=C([C@H](CNCc1ccccc1-c1ccc(Cl)cc1)N[*:1])[*:2]; X10 = O=C([C@H](CNCc1c2ccccc2nc2ccccc12)N[*:1])[*:2]; X12 = O=C([C@H](CNCc1cccc2ccc3ccccc3c12)N[*:1])[*:2]; X36 = COc1cc2cccc(OC)c2cc1CNC[C@H](N[*:1])C(=O)[*:2]; X14 = O=C([C@H](CCNCc1cccc2[nH]ccc12)N[*:1])[*:2]; X13 = O=C([C@H](CNCc1cccc2[nH]ccc12)N[*:1])[*:2]; X19 = O=C([C@H](CCNCc1cccc2nccnc12)N[*:1])[*:2]; X18 = O=C([C@H](CNCc1cccc2nccnc12)N[*:1])[*:2]; X23 = O=C([C@H](CCNCc1cc2ccccc2o1)N[*:1])[*:2]; X22 = O=C([C@H](CNCc1cc2ccccc2o1)N[*:1])[*:2]; Hyp = O=C(O)[C@@H]1C[C@@H](O)CN1; NMeNle = CCCC[C@H](NC)C(=O)O; NMeA = CN[C@@H](C)C(=O)O; Dab = NCC[C@H](N)C(=O)O

Target: T1, PD-1/PD-L1 (Homo sapiens, UniProt Q9NZQ7)
T1 construct: TVMV protease site (linker) (C); made in house; host or cells: HEK293T cells
T1 sequence (Q9NZQ7 18-239): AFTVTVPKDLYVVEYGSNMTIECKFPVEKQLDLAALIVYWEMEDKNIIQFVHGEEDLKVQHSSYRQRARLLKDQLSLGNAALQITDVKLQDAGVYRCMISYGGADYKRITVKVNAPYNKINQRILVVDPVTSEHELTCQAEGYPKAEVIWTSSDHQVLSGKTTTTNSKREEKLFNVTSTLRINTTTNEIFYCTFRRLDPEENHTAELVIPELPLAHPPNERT
Assay: PD-1/PD-L1 Homogenous Time-Resolved Fluorescence (HTRF) binding assay
Details: PD-L1-His 10 nM, PD-1-Ig 20 nM
From the text: The ability of the compounds of formula (I) to bind to PD-L1 was investigated using a PD-1/PD-L1 Homogenous Time-Resolved Fluorescence (HTRF) binding assay.
The interaction of PD-1 and PD-L1 can be assessed using soluble, purified preparations of the extracellular domains of the two proteins. The PD-1 and PD-L1 protein extracellular domains were expressed as fusion proteins with detection tags, for PD-1, the tag was the Fc portion of Immunoglobulin (PD-1-Ig) and for PD-L1 it was the 6 histidine motif (PD-L1-His). All binding studies were performed in an HTRF assay buffer consisting of dPBS supplemented with 0.1% […] bovine serum albumin and 0.05% (v/v) Tween-20. For the h/PD-L1-His binding assay, inhibitors were pre-incubated with PD-L1-His (10 nM final) for 15 m in 4 µl of assay buffer, followed by addition of PD-1-Ig (20 nM final) in 1 µl of assay buffer and further incubation for 15 m. HTRF detection was achieved using europium crypate-labeled anti-Ig (1 nM final) and allophycocyanin (APC) labeled anti-His (20 nM final). Antibodies were diluted in HTRF detection buffer and 5 µl was dispensed on top of the binding reaction. The reaction mixture was allowed to equilibrate for 30 minutes and the resulting signal (665 nm/620 nm ratio) was obtained using an EnVision fluorometer. Additional binding assays were established between the human proteins PD-1-Ig/PD-L2-His (20 & 5 nM, respectively) and CD80-His/PD-L1-Ig (100 & 10 nM, respectively).
Recombinant Proteins: Human PD-1 (25-167) with a C-terminal human Fc domain of immunoglobulin G (Ig) epitope tag [hPD-1 (25-167)-3S-IG] and human PD-L1 (18-239) with a C-terminal His epitope tag [hPD-L1(18-239)-TVMV-His] were expressed in HEK293T cells and purified sequentially by ProteinA affinity chromatography and size exclusion chromatography. Human PD-L2-His and CD80-His was obtained through commercial sources.
Table 1 lists the IC50 values for representative examples of this disclosure measured in the PD-1/PD-L1 Homogenous Time-Resolved Fluorescence (HTRF) binding assay.

Row | Structure (SMILES) | IC50 [nM]
1 | CCCC[C@H]1C(=O)N(C)[C@@H](CCCC)C(=O)N[C@@H](CC(C)C)C(=O)N[C@H](C(=O)NCC(N)=O)CSCC(=O)N[C@@H](Cc2ccc(O)cc2)C(=O)N(C)[C@@H](C)C(=O)N[C@@H](CC(N)=O)C(=O)N2CCC[C@H]2C(=O)N[C@@H](CNCc2ccccc2-c2ccc(Cl)cc2)C(=O)N[C@@H](CC(C)C)C(=O)N2C[C@H](O)C[C@H]2C(=O)N[C@@H](Cc2c[nH]c3ccccc23)C(=O)N[C@@H](CCNCc2ccccc2-c2ccc(Cl)cc2)C(=O)N[C@@H](Cc2cn(CC(=O)O)c3ccccc23)C(=O)N1C [Example 1001] ({CH2CO}-Y[NMeA]NP[X64]L[Hyp]W[X65][Trp(1-CH2COOH)][NMeNle][NMeNle]LCG-NH2; thioether N-14) | 14
2 | CCCC[C@H]1C(=O)N(C)[C@@H](CCCC)C(=O)N[C@@H](CC(C)C)C(=O)N[C@H](C(=O)NCC(N)=O)CSCC(=O)N[C@@H](Cc2ccc(O)cc2)C(=O)N(C)[C@@H](C)C(=O)N[C@@H](CC(N)=O)C(=O)N2CCC[C@H]2C(=O)N[C@@H](CNCc2cccc3nccnc23)C(=O)N[C@@H](CC(C)C)C(=O)N2C[C@H](O)C[C@H]2C(=O)N[C@@H](Cc2c[nH]c3ccccc23)C(=O)N[C@@H](CCNCc2cccc3nccnc23)C(=O)N[C@@H](Cc2cn(CC(=O)O)c3ccccc23)C(=O)N1C [Example 1002] ({CH2CO}-Y[NMeA]NP[X18]L[Hyp]W[X19][Trp(1-CH2COOH)][NMeNle][NMeNle]LCG-NH2; thioether N-14) | 6.1
3 | CCCC[C@H]1C(=O)N(C)[C@@H](CCCC)C(=O)N[C@@H](CC(C)C)C(=O)N[C@H](C(=O)NCC(N)=O)CSCC(=O)N[C@@H](Cc2ccc(O)cc2)C(=O)N(C)[C@@H](C)C(=O)N[C@@H](CC(N)=O)C(=O)N2CCC[C@H]2C(=O)N[C@@H](CNCc2cccc3nccnc23)C(=O)N[C@@H](CC(C)C)C(=O)N2C[C@H](O)C[C@H]2C(=O)N[C@@H](Cc2c[nH]c3ccccc23)C(=O)N[C@@H](CCN)C(=O)N[C@@H](Cc2cn(CC(=O)O)c3ccccc23)C(=O)N1C [Example 1004] ({CH2CO}-Y[NMeA]NP[X18]L[Hyp]W[Dab][Trp(1-CH2COOH)][NMeNle][NMeNle]LCG-NH2; thioether N-14) | 4.3
4 | CCCC[C@H]1C(=O)N(C)[C@@H](CCCC)C(=O)N[C@@H](CC(C)C)C(=O)N[C@H](C(=O)NCC(N)=O)CSCC(=O)N[C@@H](Cc2ccc(O)cc2)C(=O)N(C)[C@@H](C)C(=O)N[C@@H](CC(N)=O)C(=O)N2CCC[C@H]2C(=O)N[C@@H](CNCc2cccc3ccc4ccccc4c23)C(=O)N[C@@H](CC(C)C)C(=O)N2C[C@H](O)C[C@H]2C(=O)N[C@@H](Cc2c[nH]c3ccccc23)C(=O)N[C@@H](CCN)C(=O)N[C@@H](Cc2cn(CC(=O)O)c3ccccc23)C(=O)N1C [Example 1005] ({CH2CO}-Y[NMeA]NP[X12]L[Hyp]W[Dab][Trp(1-CH2COOH)][NMeNle][NMeNle]LCG-NH2; thioether N-14) | 120
5 | CCCC[C@H]1C(=O)N(C)[C@@H](CCCC)C(=O)N[C@@H](CC(C)C)C(=O)N[C@H](C(=O)NCC(N)=O)CSCC(=O)N[C@@H](Cc2ccc(O)cc2)C(=O)N(C)[C@@H](C)C(=O)N[C@@H](CC(N)=O)C(=O)N2CCC[C@H]2C(=O)N[C@@H](CNCc2ccccc2O[C@@H]2O[C@H](CO)[C@@H](O)[C@H](O)[C@H]2O)C(=O)N[C@@H](CC(C)C)C(=O)N2C[C@H](O)C[C@H]2C(=O)N[C@@H](Cc2c[nH]c3ccccc23)C(=O)N[C@@H](CCNCc2ccccc2O[C@@H]2O[C@H](CO)[C@@H](O)[C@H](O)[C@H]2O)C(=O)N[C@@H](Cc2cn(CC(=O)O)c3ccccc23)C(=O)N1C [Example 1006] ({CH2CO}-Y[NMeA]NP[X47]L[Hyp]W[X48][Trp(1-CH2COOH)][NMeNle][NMeNle]LCG-NH2; thioether N-14) | 32
6 | CCCC[C@H]1C(=O)N(C)[C@@H](CCCC)C(=O)N[C@@H](CC(C)C)C(=O)N[C@H](C(=O)NCC(N)=O)CSCC(=O)N[C@@H](Cc2ccc(O)cc2)C(=O)N(C)[C@@H](C)C(=O)N[C@@H](CC(N)=O)C(=O)N2CCC[C@H]2C(=O)N[C@@H](CNCc2ccccc2O[C@@H]2O[C@H](CO)[C@@H](O)[C@H](O)[C@H]2O)C(=O)N[C@@H](CC(C)C)C(=O)N2C[C@H](O)C[C@H]2C(=O)N[C@@H](Cc2c[nH]c3ccccc23)C(=O)N[C@@H](CCN)C(=O)N[C@@H](Cc2cn(CC(=O)O)c3ccccc23)C(=O)N1C [Example 1007] ({CH2CO}-Y[NMeA]NP[X47]L[Hyp]W[Dab][Trp(1-CH2COOH)][NMeNle][NMeNle]LCG-NH2; thioether N-14) | 12
7 | CCCC[C@H]1C(=O)N(C)[C@@H](CCCC)C(=O)N[C@@H](CC(C)C)C(=O)N[C@H](C(=O)NCC(N)=O)CSCC(=O)N[C@@H](Cc2ccc(O)cc2)C(=O)N(C)[C@@H](C)C(=O)N[C@@H](CC(N)=O)C(=O)N2CCC[C@H]2C(=O)N[C@@H](CNCc2cccc3[nH]ccc23)C(=O)N[C@@H](CC(C)C)C(=O)N2C[C@H](O)C[C@H]2C(=O)N[C@@H](Cc2c[nH]c3ccccc23)C(=O)N[C@@H](CCNCc2cccc3[nH]ccc23)C(=O)N[C@@H](Cc2cn(CC(=O)O)c3ccccc23)C(=O)N1C [Example 1008] ({CH2CO}-Y[NMeA]NP[X13]L[Hyp]W[X14][Trp(1-CH2COOH)][NMeNle][NMeNle]LCG-NH2; thioether N-14) | 4.9
8 | CCCC[C@H]1C(=O)N(C)[C@@H](CCCC)C(=O)N[C@@H](CC(C)C)C(=O)N[C@H](C(=O)NCC(N)=O)CSCC(=O)N[C@@H](Cc2ccc(O)cc2)C(=O)N(C)[C@@H](C)C(=O)N[C@@H](CC(N)=O)C(=O)N2CCC[C@H]2C(=O)N[C@@H](CNCc2ccc3c(c2)c2ccccc2n3CC)C(=O)N[C@@H](CC(C)C)C(=O)N2C[C@H](O)C[C@H]2C(=O)N[C@@H](Cc2c[nH]c3ccccc23)C(=O)N[C@@H](CCNCc2ccc3c(c2)c2ccccc2n3CC)C(=O)N[C@@H](Cc2cn(CC(=O)O)c3ccccc23)C(=O)N1C [Example 1009] ({CH2CO}-Y[NMeA]NP[X45]L[Hyp]W[X46][Trp(1-CH2COOH)][NMeNle][NMeNle]LCG-NH2; thioether N-14) | 9.8
9 | CCCC[C@H]1C(=O)N(C)[C@@H](CCCC)C(=O)N[C@@H](CC(C)C)C(=O)N[C@H](C(=O)NCC(N)=O)CSCC(=O)N[C@@H](Cc2ccc(O)cc2)C(=O)N(C)[C@@H](C)C(=O)N[C@@H](CC(N)=O)C(=O)N2CCC[C@H]2C(=O)N[C@@H](CNCc2cc3ccccc3o2)C(=O)N[C@@H](CC(C)C)C(=O)N2C[C@H](O)C[C@H]2C(=O)N[C@@H](Cc2c[nH]c3ccccc23)C(=O)N[C@@H](CCNCc2cc3ccccc3o2)C(=O)N[C@@H](Cc2cn(CC(=O)O)c3ccccc23)C(=O)N1C [Example 1010] ({CH2CO}-Y[NMeA]NP[X22]L[Hyp]W[X23][Trp(1-CH2COOH)][NMeNle][NMeNle]LCG-NH2; thioether N-14) | 12
10 | CCCC[C@H]1C(=O)N(C)[C@@H](CCCC)C(=O)N[C@@H](CC(C)C)C(=O)N[C@H](C(=O)NCC(N)=O)CSCC(=O)N[C@@H](Cc2ccc(O)cc2)C(=O)N(C)[C@@H](C)C(=O)N[C@@H](CC(N)=O)C(=O)N2CCC[C@H]2C(=O)N[C@@H](CNCc2cc3c(OC)cccc3cc2OC)C(=O)N[C@@H](CC(C)C)C(=O)N2C[C@H](O)C[C@H]2C(=O)N[C@@H](Cc2c[nH]c3ccccc23)C(=O)N[C@@H](CCNCc2cc3c(OC)cccc3cc2OC)C(=O)N[C@@H](Cc2cn(CC(=O)O)c3ccccc23)C(=O)N1C [Example 1011] ({CH2CO}-Y[NMeA]NP[X36]L[Hyp]W[X57][Trp(1-CH2COOH)][NMeNle][NMeNle]LCG-NH2; thioether N-14) | 7
11 | CCCC[C@H]1C(=O)N(C)[C@@H](CCCC)C(=O)N[C@@H](CC(C)C)C(=O)N[C@H](C(=O)NCC(N)=O)CSCC(=O)N[C@@H](Cc2ccc(O)cc2)C(=O)N(C)[C@@H](C)C(=O)N[C@@H](CC(N)=O)C(=O)N2CCC[C@H]2C(=O)N[C@@H](CNCc2c3ccccc3nc3ccccc23)C(=O)N[C@@H](CC(C)C)C(=O)N2C[C@H](O)C[C@H]2C(=O)N[C@@H](Cc2c[nH]c3ccccc23)C(=O)N[C@@H](CCN)C(=O)N[C@@H](Cc2cn(CC(=O)O)c3ccccc23)C(=O)N1C [Example 1013] ({CH2CO}-Y[NMeA]NP[X10]L[Hyp]W[Dab][Trp(1-CH2COOH)][NMeNle][NMeNle]LCG-NH2; thioether N-14) | 4.6
12 | CCCC[C@H]1C(=O)N(C)[C@@H](CCCC)C(=O)N[C@@H](CC(C)C)C(=O)N[C@H](C(=O)NCC(N)=O)CSCC(=O)N[C@@H](Cc2ccc(O)cc2)C(=O)N(C)[C@@H](C)C(=O)N[C@@H](CC(N)=O)C(=O)N2CCC[C@H]2C(=O)N[C@@H](CNCc2ccc3c(c2)c2ccccc2n3CC)C(=O)N[C@@H](CC(C)C)C(=O)N2C[C@H](O)C[C@H]2C(=O)N[C@@H](Cc2c[nH]c3ccccc23)C(=O)N[C@@H](CCN)C(=O)N[C@@H](Cc2cn(CC(=O)O)c3ccccc23)C(=O)N1C [Example 1014] ({CH2CO}-Y[NMeA]NP[X45]L[Hyp]W[Dab][Trp(1-CH2COOH)][NMeNle][NMeNle]LCG-NH2; thioether N-14) | 4.7
